These results are taken from US10683278B2 (JINAN UNIVERSITY, priority 2015, dated 2020).

One assay concerns the target T1, AXL kinase (Homo sapiens, UniProt P30530).
T1 construct: purchased Invitrogen PV4803
T1 sequence (P30530 26-894): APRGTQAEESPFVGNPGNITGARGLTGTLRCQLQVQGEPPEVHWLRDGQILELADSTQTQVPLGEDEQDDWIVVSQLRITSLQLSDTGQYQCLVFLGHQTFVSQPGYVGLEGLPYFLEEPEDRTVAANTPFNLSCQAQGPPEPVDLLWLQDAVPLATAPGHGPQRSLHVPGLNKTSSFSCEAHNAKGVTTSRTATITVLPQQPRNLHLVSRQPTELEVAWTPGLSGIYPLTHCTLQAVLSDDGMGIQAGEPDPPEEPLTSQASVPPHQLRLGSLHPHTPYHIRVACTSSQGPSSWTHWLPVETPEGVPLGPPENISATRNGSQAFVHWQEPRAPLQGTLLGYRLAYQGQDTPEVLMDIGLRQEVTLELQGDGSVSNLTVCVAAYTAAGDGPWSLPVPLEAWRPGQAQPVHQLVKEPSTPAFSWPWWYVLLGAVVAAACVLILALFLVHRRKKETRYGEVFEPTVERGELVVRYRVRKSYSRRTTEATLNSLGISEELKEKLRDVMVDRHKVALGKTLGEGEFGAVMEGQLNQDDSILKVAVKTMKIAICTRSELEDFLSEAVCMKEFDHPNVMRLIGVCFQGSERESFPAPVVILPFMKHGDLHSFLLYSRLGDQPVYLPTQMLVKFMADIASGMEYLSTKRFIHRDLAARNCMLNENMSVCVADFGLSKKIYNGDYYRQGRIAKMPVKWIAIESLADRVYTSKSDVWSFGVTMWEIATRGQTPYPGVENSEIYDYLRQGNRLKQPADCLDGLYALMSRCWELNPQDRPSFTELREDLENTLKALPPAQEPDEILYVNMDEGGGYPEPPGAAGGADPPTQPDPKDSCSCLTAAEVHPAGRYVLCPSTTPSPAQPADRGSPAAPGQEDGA
Description: IC50 test on AXL kinase (Z′-LYTE FRET kinase activity detection). Conditions: for IC50: Z′-LYTE FRET peptide assay, 1 h reaction; for inhibitory activity on AXL kinase: competitive experiment with ATP, in words. Type of assay: biochemical. The gist of the method: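 AXL kinase with Z′-LYTE Tyr 2 FRET peptide, ATP and graded compound concentrations reacted 1 h, then site-specific protease cleaved non-phosphorylated peptide for 1 h. Emission at 445 and 520 nm with 400 nm excitation gave the IC50.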

Assay [1] has as its target T2, FLT-3 kinase domain recombinant protein (Homo sapiens, UniProt P36888).
T2 construct: 50 μL FLT-3 kinase domain recombinant protein diluted with reaction buffer to initiate the reaction
T2 sequence (P36888 610-943 limits assumed): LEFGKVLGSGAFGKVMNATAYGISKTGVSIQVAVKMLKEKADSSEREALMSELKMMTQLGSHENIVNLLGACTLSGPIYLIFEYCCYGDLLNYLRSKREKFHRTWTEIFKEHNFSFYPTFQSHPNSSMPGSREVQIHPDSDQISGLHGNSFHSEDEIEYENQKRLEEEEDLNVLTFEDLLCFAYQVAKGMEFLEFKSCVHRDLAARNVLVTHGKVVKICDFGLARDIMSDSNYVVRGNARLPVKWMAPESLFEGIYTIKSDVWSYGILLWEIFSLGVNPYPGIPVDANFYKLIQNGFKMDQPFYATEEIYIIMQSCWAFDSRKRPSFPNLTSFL
The assay can be described thus: Inhibition rate on FLT3 kinase (ELISA). Format: biochemical. The following applies: two values per compound; for inhibition at 0.01 µM / inhibition at 0.1 µM / inhibition at 1 µM: read-out: Inhibition rate (%) against receptor tyrosine kinase FLT-3. The procedure:
Conventional enzyme-linked immunosorbent assay (ELISA) method is used, and the specific steps are as follows
12,000 g of compounds were centrifuged for 5 min, DMSO was added to make a 10^−2M stock solution, vortexed uniformly and sonicated for 10 min for standby application, and stored at −40° C. The compounds were diluted from the stock solution with DMSO to 100 times the concentration to be tested (concentration of DMSO in the system being 1%) during the test.
1. The enzyme reaction substrate Poly (Glu, Tyr) 4:1 was diluted to 20 μg/mL with potassium-free PBS (10 mM sodium phosphate buffer, 150 mM NaCl, pH 7.2-7.4), the ELISA plate was coated with same in 125 μL/well, and reacted at 37° C. for 12-16 hours, the liquid in wells was discarded, the plate was washed three times, for 5 minutes each time, with T-PBS (potassium-free PBS with 0.1% Tween-20, 200 μL/well), and the ELISA plate was dried in an oven at 37° C. for 1-2 hours.
2. To each well were added 49 μL of ATP solution diluted with reaction buffer (50 mM HEPES pH 7.4, 50 mM MgCl2, 0.5 mM MnCl2, 0.2 mM Na3VO4, 1 mM DTT), 1 μL of compounds to be tested, and 50 μL FLT-3 kinase domain recombinant protein diluted with reaction buffer to initiate the reaction (two ATP-free control wells are required for each experiment). Subject to a shaker (100 rpm) at 37° C. and reacted for 1 hour. The liquid in wells was discarded, and the plate was washed three times with T-PBS.
3. Antibody PY99 diluent (the antibody was diluted in 1:500 with T-PBS which contains 5 mg/mL BSA) was added in 100 μL/well, subjected same to a shaker at 37° C. and reacted for 0.5 hour. The liquid in wells was discarded, and the plate was washed three times with T-PBS.
4. Horseradish peroxidase labeled goat anti-mouse secondary antibody diluent (the antibody was diluted in 1:2000 with T-PBS which contains 5 mg/ml BSA) was added in 100 μL/well, subjected same to a shaker at 37° C. and reacted for 0.5 hour. The liquid in wells was discarded, and the plate was washed three times with T-PBS.
5. 2 mg/ml of OPD developing solution (diluted with 0.1 M citric acid-sodium citrate buffer which contains 0.03% H2O2 (pH=5.4)) was added in 100 μL/well, and reacted at 25° C. in the dark for 1-10 minutes.
6. 2 M H2SO4 was added in 50 μL/well to stop the reaction, and the reading from the wavelength-adjustable microwell plate ELIASA VERSAmax was performed with a wavelength of 490 nm.

Each structure is given as a SMILES string.

In turn, `CCc1ccc2c(c1)c(=O)c(C(=O)Nc1ccc(Oc3ncnc4[nH]cc(-c5ccc(OC)cc5)c34)c(F)c1)c(C)n2C` [GDL5000037, 6-ethyl-N-(3-fluoro-4-(5-(4-methoxyphenyl)-7H-pyrrolo[2,3-d]pyrimidin-4-yloxy)phenyl)-1,2-dimethyl-4-oxo-1,4-dihydroquinoline-3-carboxamide] came in with an IC50 on AXL kinase of 16 nM. Moreover, at AXL kinase, the “inhibitory activity on AXL kinase” value is “strong inhibitory activity”. Further, the “Inhibition rate (%) against receptor tyrosine kinase FLT-3” value (“Inhibition rate (%)” for short) is given as 59.8% in assay [1] (compound 10 nM, 0.01 µM); 66.5% in assay [1] (compound 100 nM, 0.1 µM); 91.6% in assay [1] (compound 1000 nM, 1 µM). Further, the inhibition at 0.01 µM in assay [1] (compound 10 nM) was determined as 65.3%. The inhibition at 0.1 µM in assay [1] (compound 100 nM) was found to be 74.3%. Besides, the inhibition at 1 µM in assay [1] (compound 1000 nM) came out at 100%.
Take `CCc1ccc2c(c1)c(=O)c(C(=O)Nc1ccc(Oc3ccnc(N)c3Cl)c(F)c1)c(C)n2C` [GDL5000059, N-(4-((2-amino-3-chloropyridin-4-yl)oxy)-3-fluorophenyl)-6-ethyl-1,2-dimethyl-4-oxo-1,4-dihydroquinoline-3-carboxamide]: the half-maximal inhibitory concentration (IC50) against AXL kinase turned out to be 72 nM. For the same compound, the “Inhibition rate (%)” value in assay [1] (compound 10 nM, 0.01 µM) is on record as 52.7%; in assay [1] (compound 100 nM, 0.1 µM), 63.8%; in assay [1] (compound 1000 nM, 1 µM), 82.3%. Besides, in assay [1] (compound 10 nM), the inhibition at 0.01 µM was 55.9%. Further, the inhibition at 0.1 µM in assay [1] (compound 100 nM) was found to be 67.8%. The inhibition at 1 µM in assay [1] (compound 1000 nM) worked out at 88.7%.
`CCc1ccc2c(c1)c(=O)c(C(=O)Nc1ccc(Oc3ncnc4[nH]cc(-c5ccccc5)c34)c(F)c1)c(CC)n2C` [TL4830005, 2,6-diethyl-N-(3-fluoro-4-(5-phenyl-7H-pyrrolo[2,3-d]pyrimidin-4-yloxy)phenyl)-1-methyl-4-oxo-1,4-dihydroquinoline-3-carboxamide] registered a half-maximal inhibitory concentration (IC50) at AXL kinase of 23 nM. Besides, on AXL kinase, the “inhibitory activity on AXL kinase” value was “strong inhibitory activity”. Further, the “Inhibition rate (%)” value was 49.8% in assay [1] (compound 10 nM, 0.01 µM); 53.3% in assay [1] (compound 100 nM, 0.1 µM); 59.9% in assay [1] (compound 1000 nM, 1 µM). In addition, in assay [1] (compound 10 nM), the inhibition at 0.01 µM was determined as 55.7%. Besides, the inhibition at 0.1 µM in assay [1] (compound 100 nM) was found to be 50.1%. Moreover, the inhibition at 1 µM in assay [1] (compound 1000 nM) stood at 71.4%.
`Cc1c(C(=O)Nc2ccc(Oc3ncnc4[nH]cc(-c5ccccc5)c34)c(F)c2)c(=O)c2cc(C(C)(C)C)ccc2n1C` [TL4800062, 6-(tert-butyl)-N-(3-fluoro-4-((5-phenyl-7H-pyrrolo[2,3-d]pyrimidin-4-yl)oxy)phenyl)-1,2-dimethyl-4-oxo-1,4-dihydroquinoline-3-carboxamide] returned an IC50 at AXL kinase of 42 nM. Further, the “Inhibition rate (%)” value in assay [1] (compound 10 nM, 0.01 µM) is reported as 44.9%; in assay [1] (compound 100 nM, 0.1 µM) it was 65.8%; in assay [1] (compound 1000 nM, 1 µM) it was 79.1%. Further, in assay [1] (compound 10 nM), the inhibition at 0.01 µM was 40.5%. Also, in assay [1] (compound 100 nM), the inhibition at 0.1 µM was 69.5%. In addition, the inhibition at 1 µM in assay [1] (compound 1000 nM) was 84%.
Turning to `Cc1c(C(=O)Nc2ccc(Oc3ncnc4[nH]cc(-c5ccccc5)c34)c(F)c2)c(=O)c2cc(F)ccc2n1C` [TL50087, 6-fluoro-N-(3-fluoro-4-(5-phenyl-7H-pyrrolo[2,3-d]pyrimidin-4-yloxy)phenyl)-1,2-dimethyl-4-oxo-1,4-hydroquinoline-3-carboxamide], the concentration for half-maximal inhibition (IC50) against AXL kinase was above 10000 nM. Further, the “Inhibition rate (%)” value turned out to be 41.8% in assay [1] (compound 10 nM, 0.01 µM); 45.8% in assay [1] (compound 100 nM, 0.1 µM); 67.2% in assay [1] (compound 1000 nM, 1 µM). Moreover, in assay [1] (compound 10 nM), the inhibition at 0.01 µM is 46.1%. Also, the inhibition at 0.1 µM in assay [1] (compound 100 nM) came out at 47.4%. Further, the inhibition at 1 µM in assay [1] (compound 1000 nM) is 84%.
Regarding `COc1cc2ncnc(Oc3ccc(NC(=O)c4cn(C5CC5)c5cc(N6CCNCC6)c(F)cc5c4=O)cc3F)c2cc1OC` [GDL5000110, 1-cyclopropyl-N-(4-(6,7-dimethoxyquinazolin-4-yloxy)-3-fluorophenyl)-6-fluoro-4-oxo-7-(piperazin-1-yl)-1,4-dihydroquinoline-3-carboxamide], on AXL kinase, the IC50 stood at 20 nM. In addition, the “Inhibition rate (%)” value is 49.2% in assay [1] (compound 10 nM, 0.01 µM); 51.8% in assay [1] (compound 100 nM, 0.1 µM); 81.2% in assay [1] (compound 1000 nM, 1 µM). Also, the inhibition at 0.01 µM in assay [1] (compound 10 nM) worked out at 48.5%. Besides, in assay [1] (compound 100 nM), the inhibition at 0.1 µM stood at 50.3%. In assay [1] (compound 1000 nM), the inhibition at 1 µM is 83.5%.
The compound `Cc1c(C(=O)Nc2ccc(Oc3ncnc4[nH]cc(-c5ccccc5)c34)c(F)c2)c(=O)c2cc(C(F)(F)F)ccc2n1C` [TL50121, N-(3-fluoro-4-((5-phenyl-7H-pyrrolo[2,3-d]pyrimidin-4-yl)oxy)phenyl)-1,2-dimethyl-4-oxo-6-(trifluoromethyl)-1,4-dihydroquinoline-3-carboxamide] had a concentration for half-maximal inhibition (IC50) against AXL kinase of 153 nM. For the same compound, the “Inhibition rate (%)” value in assay [1] (compound 10 nM, 0.01 µM) stood at 61.6%; in assay [1] (compound 100 nM, 0.1 µM) it was 63.3%; in assay [1] (compound 1000 nM, 1 µM), 77.6%. The inhibition at 0.01 µM in assay [1] (compound 10 nM) was 58.2%. The inhibition at 0.1 µM in assay [1] (compound 100 nM) was 66.7%. The inhibition at 1 µM in assay [1] (compound 1000 nM) was 84.4%.
